According to patent US6846826B2, “Phenoxypropanol connected with phenylpiperazine and phenoxyalkylamine terminal in its side chain” (priority 2001, dated 2005):

Tests used:
[1] = Heart rate and blood pressure in living rat (anaesthetized, i.v.); format: in vivo, Wistar rat; details: via femoral vein, dose not given (method: 0.5; 1.0; 3.0 mg/kg)
Description: Male Wistar rats, weighing 200˜300 g were abdominal anaesthetized with pentobarbital sodium. Tracheal was cannulated to maintain normal respiration. Polyethylene tube (inside diameter 0.58 mm, outside diameter 0.97 mm) was inserted into the left femoral vein to facilitate drug administration. A 3-way stopcock was used, with one end connected to a syringe for drug injection, while the other end was connected to the syringe filled with physiological saline. The latter was used to prevent residual drugs in the polyethylene tube after injection, which would affect experimental accuracy.
The right femoral artery was also inserted with polyethylene, and a 3-way stopcock was used tool, where one end was connected to heparin solution to prevent embolism. The other end was connected to a Disposable Diaphragm Dome, TA10019, and linked to a transducer. Through an amplifier, a recorder recorded the overall and average arterial pressure; heart rate to evaluate the effect of drug on blood pressure and heart rate. Different concentrations 0.5; 1.0; 3.0 mg/kg of compounds were given to the rats via femoral vein and the differences in the heart rate and blood pressure were compared. Furthermore in another group, test compounds of concentration 0.5; 1.0; 3.0 mg/kg were separately given to different rats via femoral vein, and the differences in the heart rate and blood pressure were compared.

β1 [2] = biological target: T1, β1 (Rattus norvegicus, UniProt P18090); assay: Isolated rat right atrium, antagonism of L-isoproterenol-induced rate increase (Schild plot); details: for β1 pA2 value, Right atrium: vs L-isoproterenol, mean ± S.E. of six to eight
T1 construct: The right and left atria were then separated; from tissue; host or cells: isolated rat right atrium (spontaneously beating) and left atrium (electrically driven)
T1 sequence (P18090 whole entry): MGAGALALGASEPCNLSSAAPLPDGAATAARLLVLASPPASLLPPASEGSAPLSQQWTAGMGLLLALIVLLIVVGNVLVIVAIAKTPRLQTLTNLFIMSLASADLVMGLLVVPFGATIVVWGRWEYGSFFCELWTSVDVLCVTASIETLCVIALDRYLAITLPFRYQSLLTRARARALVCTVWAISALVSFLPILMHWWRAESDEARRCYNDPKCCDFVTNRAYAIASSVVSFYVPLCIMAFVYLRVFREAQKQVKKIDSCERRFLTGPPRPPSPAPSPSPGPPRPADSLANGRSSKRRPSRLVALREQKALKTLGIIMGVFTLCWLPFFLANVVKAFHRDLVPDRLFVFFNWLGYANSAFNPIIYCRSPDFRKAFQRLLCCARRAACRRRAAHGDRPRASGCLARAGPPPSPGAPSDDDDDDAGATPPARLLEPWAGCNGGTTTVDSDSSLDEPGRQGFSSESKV
Method: The entire heart of rat (weighing 200˜300 g) was removed immediately after the rat was sacrificed and the blood drained by incised carotid arteries, and placed in Kreb's solution equilibrated to a mixture of 95% O2 and 5% CO2 at room temperature (20˜25° C.). The right and left atria were then separated.
The spontaneously-beating right atria was clipped on both end by heart shaped clips, where one end was fixed at the bottom of 10 ml of tissue bath made of physiological saline solution, and temperature maintained at 37° C. The other end of the atria was connected to a force transducer, and isometric contractions and beating rate of the right atria were recorded by COULBOURN AT-High-Speed VideoFigure. After the samples were given 250 mg of contractions and reach equilibrium the following experiments were carried out:
(§1) When the spontaneously beating rate of right atria reached a certain stability, cumulative administration of L-isoproterenol from 1×10^−[…] M caused the heart rate to increase continuously, and a cumulative dose-response curve was obtained. Then the L-isoproterenol was thoroughly washed off with Kreb's solution to recover the right atria's heart rate stability. After the equilibrum was reached again for at least 60 minutes, different concentrations (10^−7, 10^−6, 10^−5 M) of compounds were added. 30 minutes later, cumulative administration of L-isoproterenol from […] were carried out again, and another new cumulative dose-response curve was obtained. Administration of L-isoproterenol started from concentration 1×10^−10 M, and the concentration was raised 0.5 log each time for a total of six times. Cumulative administration interval was when the previous concentration reached its greatest effect, the next concentration would be immediately given. The time interval was approximately 3˜5 minutes, and the EC50 value could be obtained. From Schild plots, the pA2 of compounds could be found. In other groups of rats, after separate administration of test compounds, their pA2 values were obtained.
(§2) According to the method mentioned by Arunlakshana, O. et al.(Br. J. Pharmacol. Vol.14, pp. 48-57, 1959), which used the logarithm values of compound concentration testings as the x-coordinates, and the logarithm values of blocking agent of similar effect and […] as the y-coordinates, the data obtained were plotted into Figures and the slope of regression found. From x-coordinates of the line of regression, the intercept value was found, which is the pA2 value of the compound under testing. The equation is as follows: [formula] [formula] • [B]=Test compound concentration in moles • KB: equilibrium dissociation constant • n: value of slope • DR: test EC50 divided by control EC50 • CF: EC50 of second or third control groups divided by EC50 of first control group

β1 [3] = biological target: T1, β1; assay: Isolated rat left atrium (electrically driven), antagonism of L-isoproterenol (Schild plot); details: for β1 pA2 value, Left atrium: vs L-isoproterenol, mean ± S.E. of six to eight
Method: as §1, §2
The inspontaneously-beating left atrial tissue was obtained from rat's isolated right atrial tissue experiments. […] The contraction rate was 2 Hz and the resting tension 0.5 gm. After 60 minutes of equilibration, the following experiments were performed: • (a) Completion of cumulative concentration-response curve: similar to experimental method on isolated right atrium; • (b) Calculation of pA2 value: similar to calculation method on isolated right atrium.

β2 = biological target: T2, β2 (Cavia porcellus, UniProt Q8K4Z4); assay: Isolated guinea pig trachea, antagonism of L-isoproterenol relaxation (Schild plot); details: for β2 pA2 value, Trachea: vs L-isoproterenol, mean ± S.E. of six to eight
T2 construct: a portion of tracheal approximately 4 cm long was removed; from tissue; host or cells: isolated guinea pig trachea (reserpinised animals)
T2 sequence (Q8K4Z4 whole entry): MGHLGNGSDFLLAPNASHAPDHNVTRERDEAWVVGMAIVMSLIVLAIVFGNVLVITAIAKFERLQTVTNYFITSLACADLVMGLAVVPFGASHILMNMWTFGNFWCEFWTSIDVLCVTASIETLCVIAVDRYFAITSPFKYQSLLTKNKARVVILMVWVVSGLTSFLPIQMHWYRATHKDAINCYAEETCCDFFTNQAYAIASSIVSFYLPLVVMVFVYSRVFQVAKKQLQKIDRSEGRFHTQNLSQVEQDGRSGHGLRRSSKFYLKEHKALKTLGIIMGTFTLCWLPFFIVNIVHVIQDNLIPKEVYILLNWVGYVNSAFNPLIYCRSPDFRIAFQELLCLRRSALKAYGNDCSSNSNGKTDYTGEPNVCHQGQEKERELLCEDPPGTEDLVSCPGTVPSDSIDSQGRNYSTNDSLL
Method: Guinea pigs of weight between 250˜350 gm were used.
After the guinea pigs were sacrificed, a slit was made along the neck, and a portion of tracheal approximately 4 cm long was removed. The tracheal was then placed in Kreb's solution aerated with a mixture of 95% O2 and 5% CO2 and maintained at room temperature about 22˜25° C. […] The two ends of the tracheal were clamped with frog-heart shaped clamps, one end was fixed at the bottom of tissue bath filled with 200 ml of Kreb's solution, maintained at 37° C., while the other end was connected to a force transducer. Through a COULBOURN AT-High-Speed Videograph, long isometric contractions were recorded. After the sample was given 1.5 gm of tension and equilibrated, the following experiments were performed:
Then the tracheal was repeatedly washed with Kreb's solution for 20 minutes and […] of carbochol was added to cause contraction in the guinea pig's tracheal. When the contraction reached the maximum, every division of tracheal was used to complete two concentration response curve of L-isoproternol, one of them without administration of test compound and used as control; while the other curve was administered with 10^−7, 10^−6 and 10^−5 M test compounds for 30 minutes before concentration response curve was completed. This is the test group.
Similar to the calculation method for isolated right atrium experiment.

α1 = assay: Isolated Wistar rat thoracic aorta, antagonism of norepinephrine contraction (Schild plot); details: vs norepinephrine, mean ± S.E. of six to eight
Method: (§3) After sacrificing Wistar rat of weight between 200˜300 gm, the thoracic aorta was immediately removed and placed in cold Kreb's solution. The fatty connecting tissue surrounding the vessel wall was removed and the thoracic aorta was cut into rings of length 5 mm. The two ends of each ring was pieced and fixed with “Z” shaped platinum wires. Then the thoracic aorta was suspended in 10 ml of tissue bath, aerated with air mixture (95% O2+5% CO2) and maintained at 37° C., where one end was fixed at the bottom of tissue trough, the other end connected to force transducer to record the long contraction via recorder. The sample was given 1 gm of tension and equilibrated for 60 minutes before the following experiments were carried out.
After thoracic aorta had reached equilibrium in the tissue trough, cumulative administration of norepinephrine from 10^−10˜3×10^−4 M caused the blood vessel contract to increase tension continuously, and a cumulative dose-response curve was obtained. Then the norepinephrine was thoroughly washed off with Kreb's solution to recover the aorta stability. After the equilibrum was reached again for at least 60 minutes, different concentrations as 10^−7, 10^−6, 10^−5 M of test compounds were added. 30 minutes later, cumulative administration of norepinephrine from […] were carried out again, and another new cumulative dose-response curve was obtained. Administration of norepinephrine started from concentration 1×10^−10 M, and the concentration was raised 0.5 log each time. Cumulative administration interval was when the previous concentration reached its greatest effect, the next concentration would be immediately given. The time interval was approximately 3˜5 minutes, and the EC50 value could be obtained. From Schild plots, the pA2 of test compounds could be found. Calculation of pA2 value: similar to calculation method on isolated right atrium.

Calcium = assay: Isolated Wistar rat thoracic aorta, antagonism of CaCl2-induced contraction; details: vs CaCl2
Method: as §3
After thoracic aorta had reached equilibrium in the tissue trough, cumulative administration of CaCl2 from […] caused the blood vessel contract to increase tension continuously, and a cumulative dose-response curve was obtained. Then the CaCl2 was thoroughly washed off with Kreb's solution to recover the aorta stability. After the equilibrum was reached again for at east 60 minutes, different concentrations as 10^−8, 10^−7, 10^−6 M of test compounds were added. 30 minutes later, cumulative administration of CaCl2 from 3×10^−5˜10^−2 M were carried out again, and another new cumulative dose-response curve was obtained. Cumulative administration interval was when the previous concentration reached its greatest effect, the next concentration would be immediately given. The time interval was approximately 3˜5 minutes, and the EC50 value could be obtained. From Schild plots, the pA2 of test compounds could be found. Calculation of pA2 value: similar to calculation method on isolated right atrium.

Structure (SMILES)	Decrease of blood pressure [1] [mmHg]	β1 Slope of Schild plot, Right atrium (β1 [2])	β1 pA2 value, Right atrium (β1 [2])	β1 Slope of Schild plot, Left atrium (β1 [3])	β1 pA2 value, Left atrium (β1 [3])	β2 Slope of Schild plot, Trachea (β2)	β2 pA2 value, Trachea (β2)	α1 pA2 value, Aorta (α1)	Calcium PKCa^−1 value, Aorta (Calcium)
COC(=O)C1=C(C)NC(C)=C(C(=O)OC)C1c1ccc(OCC(O)CNCCOc2ccccc2OC)cc1 (stereo not drawn) [Labedipinedilol-B]	60 ± 15	(0.97 ± 0.10)	6.61 ± 0.11	(0.83 ± 0.06)	6.81 ± 0.08	(0.85 ± 0.03)	6.48 ± 0.07	7.55 ± 0.05	8.02 ± 0.04
COC(=O)C1=C(C)NC(C)=C(C(=O)OC)C1c1ccc(OCC(O)CN2CCN(c3ccccc3Cl)CC2)c(OC)c1 (stereo not drawn) [Labedipinedilol-C]	50 ± 17	(1.02 ± 0.04)	7.01 ± 0.09	(0.99 ± 0.03)	7.23 ± 0.07	(0.92 ± 0.02)	5.54 ± 0.16	6.87 ± 0.08	8.12 ± 0.04
COC(=O)C1=C(C)NC(C)=C(C(=O)OC)C1c1ccc(OCC(O)CNCCOc2ccccc2C)c(OC)c1 (stereo not drawn) [Labedipinedilol-D]	55 ± 9	(0.84 ± 0.03)	7.23 ± 0.03	(1.12 ± 0.04)	6.31 ± 0.12	(1.10 ± 0.06)	5.70 ± 0.06	7.23 ± 0.05	8.23 ± 0.06
COC(=O)C1=C(C)NC(C)=C(C(=O)OC)C1c1ccc(OCC(O)CNCCOc2ccccc2Cl)c(OC)c1 (stereo not drawn) [Labedipinedilol-E]	58 ± 7	(1.12 ± 0.06)	6.24 ± 0.06	(1.07 ± 0.05)	6.15 ± 0.09	(0.65 ± 0.03)	5.07 ± 0.12	8.46 ± 0.05	8.08 ± 0.04
